This note sets out measurements from article PMC2806602 (The Journal of neuroscience : the official journal of the …, 2009).

Positions count from the first letter of the chain named. Read-outs that look alike come from different tables or passages of the source.

The target in one assay is T1, GluRδ2^Lc (Rattus norvegicus, UniProt Q63226, A654T).
T1 sequence (Q63226 24-1007 A654T): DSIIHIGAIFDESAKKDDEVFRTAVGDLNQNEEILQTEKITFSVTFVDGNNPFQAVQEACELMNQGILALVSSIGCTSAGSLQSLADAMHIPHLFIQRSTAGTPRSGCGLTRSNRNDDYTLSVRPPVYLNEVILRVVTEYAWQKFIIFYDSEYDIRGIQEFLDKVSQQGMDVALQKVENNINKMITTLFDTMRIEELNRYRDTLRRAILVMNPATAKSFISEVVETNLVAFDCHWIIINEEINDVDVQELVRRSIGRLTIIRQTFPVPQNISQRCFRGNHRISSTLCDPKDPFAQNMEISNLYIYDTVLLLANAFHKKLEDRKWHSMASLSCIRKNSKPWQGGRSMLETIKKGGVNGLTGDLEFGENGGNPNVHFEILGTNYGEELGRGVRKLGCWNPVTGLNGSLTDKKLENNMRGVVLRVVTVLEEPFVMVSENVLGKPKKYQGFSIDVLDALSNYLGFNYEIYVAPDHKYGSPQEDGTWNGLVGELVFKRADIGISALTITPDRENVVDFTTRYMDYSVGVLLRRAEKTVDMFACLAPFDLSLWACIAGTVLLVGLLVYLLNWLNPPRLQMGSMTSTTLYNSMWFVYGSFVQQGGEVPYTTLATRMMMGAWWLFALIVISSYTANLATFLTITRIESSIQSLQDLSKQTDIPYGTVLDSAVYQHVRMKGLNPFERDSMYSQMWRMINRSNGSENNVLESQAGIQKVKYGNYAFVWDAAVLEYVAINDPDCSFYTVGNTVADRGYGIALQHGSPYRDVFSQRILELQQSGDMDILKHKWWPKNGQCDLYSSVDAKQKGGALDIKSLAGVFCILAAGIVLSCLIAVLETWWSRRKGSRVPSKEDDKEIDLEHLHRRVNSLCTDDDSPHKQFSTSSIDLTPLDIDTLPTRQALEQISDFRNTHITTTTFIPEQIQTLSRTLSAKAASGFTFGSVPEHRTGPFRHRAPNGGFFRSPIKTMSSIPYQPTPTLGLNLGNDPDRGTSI
Type of assay: cell-based.

A further assay has as its target T2, GluRδ2^Lc E531C+D782C (Rattus norvegicus, UniProt Q63226, A654T/D782C/E531C).
T2 sequence (Q63226 24-1007 E531C/A654T/D782C): T1 sequence (Q63226 24-1007 A654T) with E508C, D759C
Put plainly: Two-electrode voltage-clamp recordings in Xenopus oocytes, GluRδ2^Lc E531C+D782C. It is filed as cell-based. In general terms: In two-electrode clamp one electrode senses voltage and the other passes current.

With `[Ca+2]` [Ca^2+, calcium], the “spontaneously active current relative to baseline with Ba^2+” value at GluRδ2^Lc (0.5 mM Ba^2+ exchanged with 0.5 mM of the divalent cation) was found to be 3.91 ± 0.22. For the same compound, the “Ca^2+ potentiation (relative to baseline)” value worked out at 3.8 ± 0.23 fold on GluRδ2^Lc (3 mM Ca^2+, baseline spontaneously active current, ± SEM) and 0.9 ± 0.01 fold at GluRδ2^Lc E531C+D782C (3 mM Ca^2+, ± SEM). Also, on GluRδ2^Lc (Ca^2+ concentration-response, fitted maximum), the “maximal fold potentiation relative to baseline spontaneously active currents” value turned out to be 4.1 ± 0.2 fold. For the same compound, the “nH of reduction of D-serine potency by extracellular Ca^2+” value on GluRδ2^Lc (Hill coefficient) is 1.3. Moreover, the “nH of Ca^2+ potentiation of GluRδ2^Lc currents” value on GluRδ2^Lc (Hill coefficient, in the absence of D-serine) is 1.7; on GluRδ2^Lc (Hill coefficient, in the presence of 1 mM D-serine) it was 2.3. Also, the EC50 (commonly the concentration giving half of the maximal effect) stood at 676 ± 13 µM at GluRδ2^Lc (read-out: EC50 of Ca^2+ to potentiate GluRδ2^Lc currents, in the presence of 1 mM D-serine) and 205 ± 7 µM at GluRδ2^Lc (read-out: EC50 of Ca^2+ to potentiate spontaneously active GluRδ2^Lc currents, in the absence of D-serine).
With `N[C@H](CO)C(=O)O` [D-serine], the “D-serine + 0 mM Ca^2+ nH” value at GluRδ2^Lc (Hill slope, 0 mM Ca^2+) worked out at 1.0; at GluRδ2^Lc E531C+D782C (Hill slope, 0 mM Ca^2+), 0.8. Moreover, the “D-serine + 3 mM Ca^2+ nH” value on GluRδ2^Lc (Hill slope, 3 mM Ca^2+) is 2.1; on GluRδ2^Lc E531C+D782C (Hill slope, 3 mM Ca^2+), 0.8.
